Measurements reported in publication PMC5794461, “Kinetic analysis of the isoleucyl‐tRNA synthetase mechanism: the next reaction cycle can start before the previous one ends” (FEBS Open Bio, 2017).

Molecular target: T1, isoleucyl-tRNA synthetase (IleRS) (Escherichia coli, UniProt P00956)
T1 construct: gene ileS; full-length native enzyme purified from E. coli B; one-subunit enzyme
Test: global best fit of steady-state ATP-PPi exchange and tRNA aminoacylation rates
Assay type: biochemical
Settings: AMP·E (segment 1), competitive with MgATP; pH 7.4, 30 °C, Mg-acetate, 50 mM K-acetate, no chloride; unreliable: fitted range open above (360 <)
Excerpt: global best fit of steady-state ATP-PPi exchange and tRNA aminoacylation rates on isoleucyl-tRNA synthetase (IleRS)

T1 sequence (P00956 2-938): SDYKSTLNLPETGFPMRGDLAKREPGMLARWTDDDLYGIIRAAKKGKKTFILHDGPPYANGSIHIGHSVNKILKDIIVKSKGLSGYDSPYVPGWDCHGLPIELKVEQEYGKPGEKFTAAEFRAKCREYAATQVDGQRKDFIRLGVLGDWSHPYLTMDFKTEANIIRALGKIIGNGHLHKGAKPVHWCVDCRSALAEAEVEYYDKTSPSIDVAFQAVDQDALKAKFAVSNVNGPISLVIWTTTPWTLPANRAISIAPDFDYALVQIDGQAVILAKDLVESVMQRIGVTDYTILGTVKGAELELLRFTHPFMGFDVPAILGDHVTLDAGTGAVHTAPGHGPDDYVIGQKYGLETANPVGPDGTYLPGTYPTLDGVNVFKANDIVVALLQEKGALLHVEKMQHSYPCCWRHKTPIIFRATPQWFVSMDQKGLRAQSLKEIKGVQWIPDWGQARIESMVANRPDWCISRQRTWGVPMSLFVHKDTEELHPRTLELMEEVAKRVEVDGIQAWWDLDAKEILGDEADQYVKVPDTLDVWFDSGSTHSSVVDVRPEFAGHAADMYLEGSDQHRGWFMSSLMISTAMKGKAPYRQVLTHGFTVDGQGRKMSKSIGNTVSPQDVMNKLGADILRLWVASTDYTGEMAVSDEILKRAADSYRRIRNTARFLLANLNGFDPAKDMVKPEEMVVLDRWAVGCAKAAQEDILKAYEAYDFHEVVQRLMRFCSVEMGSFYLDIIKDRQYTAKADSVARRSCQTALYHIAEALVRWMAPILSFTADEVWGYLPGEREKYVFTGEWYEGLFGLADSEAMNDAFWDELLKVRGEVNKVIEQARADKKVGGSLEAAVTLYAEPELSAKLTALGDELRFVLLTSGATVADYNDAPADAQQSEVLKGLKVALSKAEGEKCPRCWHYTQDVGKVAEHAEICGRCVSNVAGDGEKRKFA

Nc1ncnc2c1ncn2[C@@H]1O[C@H](COP(=O)(O)O)[C@@H](O)[C@H]1O [AMP]
Value: 705 µM
